The source of these data is article PMC12796071, “Evaluation of [^18F]MNI-1054, a novel PET ligand for lysine-specific histone demethylase 1A (LSD1), in non-human primates” (EJNMMI Research, 2025).

The nature of data set [1]: TAK-418 plasma concentration after 5-minute intravenous bolus. It counts as in vivo, rhesus monkeys (macaca mulatta). The conditions noted are these: 0.3 mg/kg iv.
For data set [2], the target named is T1, LSD1 (Macaca mulatta, UniProt I2CUD2). Put plainly: LSD1 enzyme occupancy in brain from [18F]MNI-1054 PET blocking, self-block and repopulation studies. It counts as in vivo, rhesus monkeys (macaca mulatta). The arrangement: from tissue; host or cells: brain of living rhesus monkeys (M1, M2), in vivo PET. The conditions noted are these: for Occupancy: from Ki. The protocol:
M1 and M2 each completed a scan at baseline to assess brain penetration and kinetics and to serve as reference for the blocking and displacement studies. A self-block study with cold 3 mg/kg MNI-1054, starting 5 min prior to [^18F]MNI-1054 administration, was conducted in M1 to assess regional differences in non-specific binding.
Blocking studies with the LSD1 inhibitor TAK-418 ([…]) were performed to measure the dose-occupancy relationship for this compound. For blocking studies, TAK-418 was administered intravenously 2 h prior to [^18F]MNI-1054. Prior to conducting these blocking studies, a displacement study with TAK-418 (3 mg/kg) was performed to confirm irreversible tracer binding, in which TAK-418 was administered 1.5 h post [^18F]MNI-1054 administration. For all studies involving TAK-418, the test article was administered intravenously over 5 min. Due to the irreversible binding of these compounds to LSD1, the time taken for the enzyme to re-populate was investigated by imaging one animal (M2) with [^18F]MNI-1054 at 24 and 48 h post TAK-418 treatment (0.3 mg/kg). Each animal also underwent a high-resolution T1-weighted structural brain MRI scan with a 3-D MPRAGE sequence on a separate day for anatomical reference.
Regional occupancy due to TAK-418 or unlabeled MNI-1054 as measured with [^18F]MNI-1054 was computed as the percent change relative to the baseline value of Ki, i.e. where the drug was either TAK-418 or MNI-1054. An Emax model with maximum occupancy constrained to a value less than 100% was fitted to the dose-occupancy plot to estimate Omax (maximal occupancy) and ED50 [mg/kg] representing the injected TAK-418 dose yielding 50% LSD1 occupancy.

The target in data set [3] is T1, LSD1. Put plainly: PET imaging of the testes (baseline and TAK-418 blocking). As to conditions: TAK-418 3.0 mg/kg iv 120 min before tracer, M3.
Method: TAK-418 (3 mg/kg) was administered as an intravenous bolus over 5-min, starting 120 min prior to [^18F]MNI-1054 administration.
Setting [4] is: cerebellum, TAK-418 iv 2 h before tracer.

Molecules are shown by their SMILES. Where “and” joins values, the source holds several entries; their conditions need not be identical. Equal entries are not always repeated. Entries after “also recorded” stand apart in the source; their conditions may differ.

In the case of `O=C(NC1CCOCC1)c1csc([C@@H]2C[C@H]2NCC2CC2)c1` [TAK-418], in data set [1] (24 and 48 hours post-dose, M2), the “TAK-418 levels in plasma” value is “no detectable levels; also recorded: below the level of detection”. Also, the “plasma concentration as percent of its peak value” in data set [1] (after 5 h) is 0.45%. The “Occupancy based on fractional changes in k3” value at LSD1 [2] (cerebellum, TAK-418 0.005 mg/kg, 2 h post-dose) is 2.4%. Moreover, the Occupancy on LSD1 [2] (cerebellum, TAK-418 0.005 mg/kg, 2 h post-dose, M2) is given as −21.3%; on LSD1 [2] (cerebellum, TAK-418 0.01 mg/kg, 2 h post-dose, M1) it was 47.3%; at LSD1 [2] (cerebellum, TAK-418 0.03 mg/kg, 2 h post-dose, M2), 62.5%; on LSD1 [2] (cerebellum, TAK-418 0.3 mg/kg, 2 h post-dose, M1) it was 89.9%; at LSD1 [2] (cerebellum, TAK-418 3 mg/kg, 2 h post-dose, M1, 3 mg/kg) it was 90.1%. The “[18F]MNI-1054 Ki 2 h post-dose” value is given as 0.057 mL/cm^3/min on LSD1 [2] (cerebellum, TAK-418 0.005 mg/kg, M2); 0.030 mL/cm^3/min at LSD1 [2] (cerebellum, TAK-418 0.01 mg/kg, M1); 0.017 mL/cm^3/min at LSD1 [2] (cerebellum, TAK-418 0.03 mg/kg, M2); 0.006 mL/cm^3/min at LSD1 [2] (cerebellum, TAK-418 0.3 mg/kg, M1); 0.005 mL/cm^3/min at LSD1 [2] (cerebellum, TAK-418 3 mg/kg, M1). This molecule registered an LSD1 enzyme occupancy at LSD1 [2] (cerebellum, TAK-418 0.3 mg/kg, 24 h post-dose, M2) of 29.8%. Besides, the “half-life for occupancy to decrease to zero (proxy for LSD1 enzyme repopulation)” value on LSD1 [2] (cerebellum, TAK-418 0.3 mg/kg, exponential fit to 2, 24 and 48 h occupancy) came to 12.28 h. Further, the “ED50 (Emax model fit)” value at LSD1 [2] (setting [4]) was 0.0224 mg/kg and ~ 0.0224 mg/kg; at LSD1 [2] (occipital cortex), 0.0279 mg/kg and ~ 0.0279 mg/kg; on LSD1 [2] (pons), 0.046 mg/kg. Besides, the “Omax (Emax model fit)” value came to 95.6% on LSD1 [2] (setting [4]), 77.3% at LSD1 [2] (occipital cortex) and 73.3% at LSD1 [2] (pons). Also, the “occupancy in the testes” value on LSD1 [3] (from fractional changes in a parameter other than Ki) is 94.4%. Moreover, the “signal blockade in the testes” value at LSD1 [3] (compared with control leg muscle, 3 mg/kg) is “significant signal blockade; also recorded: substantial reduction”.
